The source of these data is patent EP1640359A2, “Anticonvulsant and central nervous system-active bis(fluorophenyl)alkylamides” (NPS PHARMACEUTICALS, INC., priority 1997, dated 1999).

This experiment has as its system normal anesthetized rats. Kind of experiment: Flexor reflex in normal anesthetized rats (spasticity model). The experiment is classed as in vivo. As to conditions: in comparison to baclofen, Figure 3 legend only, no numbers given. The text has this:
Baclofen, diazepam (Valium), and tizanidine are effective on different parameters of spasticity (EMG recordings, H-reflex, the H/M ratio, mono- and polysynaptic reflexes, clonus, hyperreflexia) in these models. The flexor reflex is a polysynaptic response elicited by stimulation of the bottom of the foot and models the withdrawal reflex.

Structures are written as SMILES.

With `NC(=O)CC(c1cccc(F)c1)c1cccc(F)c1` [Compound 1, 3,3-bis(3-fluorophenyl)propanamide], the “reduction in the flexor reflex” value is on record as “reduction in the flexor reflex”.
